# According to patent US12575768B2, “Analyte sensor antimicrobial configurations and adhesives” (Abbott Diabetes Care, Inc., priority 2018, dated 2026):
# Tested on: gram-positive bacteria strains associated with common skin flora and wound infection
# Test: modified Kirby-Bauer disk diffusion assay, overall conclusion
# Assay type: cell-based
# Settings: conclusion from zone of inhibition measurements of Table 1
# Experimental: Example 3: […] Testing of Silver-Based Antimicrobial Quality. In this example, sensors membranes comprising the silver-based antimicrobial compounds of Example 2 (tested in quadruplicate for each of the sensors in Example 2) and the Control of Example 2 were evaluated […] against a variety of gram-positive bacteria strains associated with common skin flora and wound infection, and which were nosocomial-derived using a modified Kirby-Bauer disk diffusion assay for antibiotic susceptibility testing. The bacteria used for evaluation were Staphylococcus aureus (MRSA) (ATCC #33591), Staphylococcus epidermidis (ATCC #12228), Enterococcus faecalis (ATCC #4082), and Streptococcus pyogenes (ATCC #19615). Each were cultured on Tryptic Soy Agar, except for S. pyogenes, which were cultured on Blood Agar.
row,Compound,antimicrobial properties (in words)
1,[Cl][Ag] [silver chloride],demonstrate antimicrobial properties
2,[Ag][I] [silver iodide],demonstrate antimicrobial properties
